According to EP0454367B1, “Growth hormone releasing factor analogs” (ELI LILLY AND COMPANY, priority 1990, dated 1991):
Starred links: 1 amine or outer side, 2 acyl side, 3 side chain; linkers in the order of their positions; H or OH if unused. Non-standard residues stand in square brackets, D forms with d. Residues, ends and D or L forms follow the SMILES beside them. *: point of attachment. X3 = O=C([C@H](Cc1ccc(O)cc1)N(CC(O)CO)[*:1])[*:2]; X2 = C[C@@H](C(=O)[*:2])N(CC(O)CO)[*:1]; X1 = O=C([C@@H]1CCCN1CC(O)CO)*; NMeA = CN[C@@H](C)C(=O)O

These compounds were tested against T1, Rat Pituitary Cells (Rattus norvegicus, UniProt Q02644) (assay: GRF-analog mediated GH secretion from rat pituitary cells (method of Heiman et al.)). Conditions: EC50 [R^12,T^15,R^21,L^27]hGRF(1-29)NH2 / EC50 analog.
T1 sequence (Q02644 23-464): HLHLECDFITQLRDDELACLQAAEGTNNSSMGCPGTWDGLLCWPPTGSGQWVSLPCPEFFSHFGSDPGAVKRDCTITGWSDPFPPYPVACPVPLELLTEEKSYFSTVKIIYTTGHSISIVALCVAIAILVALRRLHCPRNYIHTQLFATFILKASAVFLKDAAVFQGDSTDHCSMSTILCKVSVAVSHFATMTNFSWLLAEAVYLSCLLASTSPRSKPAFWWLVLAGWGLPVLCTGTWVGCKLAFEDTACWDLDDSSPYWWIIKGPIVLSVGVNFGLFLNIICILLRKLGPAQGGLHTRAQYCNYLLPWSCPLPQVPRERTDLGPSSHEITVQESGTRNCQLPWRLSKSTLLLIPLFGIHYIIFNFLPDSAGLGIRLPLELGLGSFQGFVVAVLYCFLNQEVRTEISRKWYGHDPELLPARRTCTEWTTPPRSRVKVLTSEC
Assay type: cell-based
Procedure: The polypeptide compounds of the invention may be assayed in numerous systems. One in vivo assay is carried out in sodium pentobarbital-anesthetized rats. Wehrenberg et al., Biochem. Biophys. Res. Commun. 109:382 (1982). Growth hormone release is measured in vitro with rat anterior pituitary cells. Heiman et al., Endocrinol. 116:410 (1985). Assays are also performed in wether lambs as described in the Examples provided hereinafter.
Various bGRF peptide analogs were synthesized by the solid phase synthesis method as described in U.S. Patent 4,617,149. The compounds were assayed in rat pituitary cells by the method of Heiman et al., Endocrinol. 116:410 (1985). The analogs are based on the sequence of the first 29 amino acids of human growth hormone releasing factor with the substitutions listed.

SMILES | Relative Potency (% of std)
CC[C@H](C)[C@H](NC(=O)[C@H](C)NC(=O)[C@H](CC(=O)O)NC(=O)[C@H](C)NC(=O)[C@H](Cc1ccc(O)cc1)NC(=O)[C@@H]1CCCN1CC(O)CO)C(=O)N[C@@H](Cc1ccccc1)C(=O)N[C@H](C(=O)N[C@@H](CC(N)=O)C(=O)N[C@@H](CO)C(=O)N[C@@H](Cc1ccc(O)cc1)C(=O)N[C@@H](CCCNC(=N)N)C(=O)N[C@@H](CCCNC(=N)N)C(=O)N[C@H](C(=O)N[C@@H](CC(C)C)C(=O)N[C@H](C(=O)N[C@@H](CCC(N)=O)C(=O)N[C@@H](CC(C)C)C(=O)N[C@@H](CO)C(=O)N[C@@H](C)C(=O)N[C@@H](CCCNC(=N)N)C(=O)N[C@@H](CCCNC(=N)N)C(=O)N[C@@H](CC(C)C)C(=O)N[C@@H](CC(C)C)C(=O)N[C@@H](CCC(N)=O)C(=O)N[C@@H](CC(=O)O)C(=O)N[C@H](C(=O)N[C@@H](CC(C)C)C(=O)N[C@@H](CO)C(=O)N[C@@H](CCCNC(=N)N)C(N)=O)[C@@H](C)CC)[C@@H](C)O)C(C)C)[C@@H](C)O (some centres unmarked) [DHP[P^0,R^12,T^15,R^21,L^27]hGRF(1-29)NH2] (X1-YADAIFTNSYRRVLTQLSARRLLQDILSR-NH2) | .13 % of std
CC[C@H](C)[C@H](NC(=O)[C@H](C)NC(=O)[C@H](CC(=O)O)NC(=O)[C@H](C)NC(=O)[C@H](Cc1ccc(O)cc1)NC(=O)[C@@H]1CCCN1C(=O)[C@@H]1CCCN1CC(O)CO)C(=O)N[C@@H](Cc1ccccc1)C(=O)N[C@H](C(=O)N[C@@H](CC(N)=O)C(=O)N[C@@H](CO)C(=O)N[C@@H](Cc1ccc(O)cc1)C(=O)N[C@@H](CCCNC(=N)N)C(=O)N[C@@H](CCCNC(=N)N)C(=O)N[C@H](C(=O)N[C@@H](CC(C)C)C(=O)N[C@H](C(=O)N[C@@H](CCC(N)=O)C(=O)N[C@@H](CC(C)C)C(=O)N[C@@H](CO)C(=O)N[C@@H](C)C(=O)N[C@@H](CCCNC(=N)N)C(=O)N[C@@H](CCCNC(=N)N)C(=O)N[C@@H](CC(C)C)C(=O)N[C@@H](CC(C)C)C(=O)N[C@@H](CCC(N)=O)C(=O)N[C@@H](CC(=O)O)C(=O)N[C@H](C(=O)N[C@@H](CC(C)C)C(=O)N[C@@H](CO)C(=O)N[C@@H](CCCNC(=N)N)C(N)=O)[C@@H](C)CC)[C@@H](C)O)C(C)C)[C@@H](C)O (some centres unmarked) [DHP[P^-1,P^0,R^12,T^15,R^21,L^27]hGRF(1-29)NH2] (X1-PYADAIFTNSYRRVLTQLSARRLLQDILSR-NH2) | .14 % of std
CC[C@H](C)[C@H](NC(=O)[C@H](C)NC(=O)[C@H](CC(=O)O)NC(=O)[C@H](C)NC(=O)[C@H](Cc1ccc(O)cc1)NC(=O)[C@H](C)NC)C(=O)N[C@@H](Cc1ccccc1)C(=O)N[C@H](C(=O)N[C@@H](CC(N)=O)C(=O)N[C@@H](CO)C(=O)N[C@@H](Cc1ccc(O)cc1)C(=O)N[C@@H](CCCNC(=N)N)C(=O)N[C@@H](CCCNC(=N)N)C(=O)N[C@H](C(=O)N[C@@H](CC(C)C)C(=O)N[C@H](C(=O)N[C@@H](CCC(N)=O)C(=O)N[C@@H](CC(C)C)C(=O)N[C@@H](CO)C(=O)N[C@@H](C)C(=O)N[C@@H](CCCNC(=N)N)C(=O)N[C@@H](CCCNC(=N)N)C(=O)N[C@@H](CC(C)C)C(=O)N[C@@H](CC(C)C)C(=O)N[C@@H](CCC(N)=O)C(=O)N[C@@H](CC(=O)O)C(=O)N[C@H](C(=O)N[C@@H](CC(C)C)C(=O)N[C@@H](CO)C(=O)N[C@@H](CCCNC(=N)N)C(N)=O)[C@@H](C)CC)[C@@H](C)O)C(C)C)[C@@H](C)O [[N-Me-A^0,R^12,T^15,R^21,L^27]hGRF(1-29)NH2] (H-[NMeA]YADAIFTNSYRRVLTQLSARRLLQDILSR-NH2) | .17 % of std

Results, then the compound that gave them:

Relative Potency (% of std) | SMILES
.335 % of std | CC[C@H](C)[C@H](NC(=O)[C@H](C)NC(=O)[C@H](CC(=O)O)NC(=O)[C@H](C)NC(=O)[C@H](Cc1ccc(O)cc1)NC(=O)[C@H](C)NCC(O)CO)C(=O)N[C@@H](Cc1ccccc1)C(=O)N[C@H](C(=O)N[C@@H](CC(N)=O)C(=O)N[C@@H](CO)C(=O)N[C@@H](Cc1ccc(O)cc1)C(=O)N[C@@H](CCCNC(=N)N)C(=O)N[C@@H](CCCNC(=N)N)C(=O)N[C@H](C(=O)N[C@@H](CC(C)C)C(=O)N[C@H](C(=O)N[C@@H](CCC(N)=O)C(=O)N[C@@H](CC(C)C)C(=O)N[C@@H](CO)C(=O)N[C@@H](C)C(=O)N[C@@H](CCCNC(=N)N)C(=O)N[C@@H](CCCNC(=N)N)C(=O)N[C@@H](CC(C)C)C(=O)N[C@@H](CC(C)C)C(=O)N[C@@H](CCC(N)=O)C(=O)N[C@@H](CC(=O)O)C(=O)N[C@H](C(=O)N[C@@H](CC(C)C)C(=O)N[C@@H](CO)C(=O)N[C@@H](CCCNC(=N)N)C(N)=O)[C@@H](C)CC)[C@@H](C)O)C(C)C)[C@@H](C)O (some centres unmarked) [DHP[A^0,R^12,T^15,R^21,L^27]hGRF(1-29)NH2] (H-[X2]YADAIFTNSYRRVLTQLSARRLLQDILSR-NH2)
.8 % of std | CC[C@H](C)[C@H](NC(=O)[C@H](C)NC(=O)[C@H](CC(=O)O)NC(=O)[C@H](C)NC(=O)[C@H](Cc1ccc(O)cc1)NCC(O)CO)C(=O)N[C@@H](Cc1ccccc1)C(=O)N[C@H](C(=O)N[C@@H](CC(N)=O)C(=O)N[C@@H](CO)C(=O)N[C@@H](Cc1ccc(O)cc1)C(=O)N[C@@H](CCCNC(=N)N)C(=O)N[C@@H](CCCNC(=N)N)C(=O)N[C@H](C(=O)N[C@@H](CC(C)C)C(=O)N[C@H](C(=O)N[C@@H](CCC(N)=O)C(=O)N[C@@H](CC(C)C)C(=O)N[C@@H](CO)C(=O)N[C@@H](C)C(=O)N[C@@H](CCCNC(=N)N)C(=O)N[C@@H](CCCNC(=N)N)C(=O)N[C@@H](CC(C)C)C(=O)N[C@@H](CC(C)C)C(=O)N[C@@H](CCC(N)=O)C(=O)N[C@@H](CC(=O)O)C(=O)N[C@H](C(=O)N[C@@H](CC(C)C)C(=O)N[C@@H](CO)C(=O)N[C@@H](CCCNC(=N)N)C(N)=O)[C@@H](C)CC)[C@@H](C)O)C(C)C)[C@@H](C)O (some centres unmarked) [DHP[R^12,T^15,R^21,L^27]hGRF(1-29)NH2] (H-[X3]ADAIFTNSYRRVLTQLSARRLLQDILSR-NH2)
